Where two headings read alike, the source gives them in different places.
Key:
[1] = biological target: T1, lactate dehydrogenase (LDH) (Oryctolagus cuniculus, UniProt P13491); assay: Single-enzyme assay system, LDH activity (absorbance 340 nm); assay type: biochemical, rabbit
T1 construct: purchased Sigma-Aldrich; host or cells: rabbit muscle
Protocol: (§1) The activities of enzyme assay systems were determined by measuring the absorbance of reaction mixture solutions or bioluminescence intensity in the solutions of the analyzed pesticide active ingredients or in the control solution.
(§2) The activities of single-enzyme assay systems with Red, ADH, and LDH were determined by changes in the absorbance at 340 nm.
The reaction mixture for the LDH-catalyzed reaction comprised 850 μL of the 0.05 M potassium-phosphate buffer pH 8.0, 9 U of LDH, 40 μL of the 3.25 mM NADH solution, 30 μL of the 69 mM pyruvate solution, and 50 μL of the analyte solution or the solvent solution (control).
(§3) The effects of the active ingredients of pesticide and the solvents on the activity of the enzymes in the single-enzyme assay systems were determined as the relative activity according to the formula A = (At/Ac)∙100%, where Ac and At are the enzyme activity in the control and in the analyte solution, respectively.
(§4) The parameter IC50 was used to estimate the inhibitory effect of the active ingredients of pesticides on the enzyme activity and the bioluminescence intensity of a multi-enzyme assay system. It is the concentration of the active ingredient decreasing the enzyme activity by 50%.

[2] = biological target: lactate dehydrogenase + NAD(P)H:FMN-oxidoreductase + luciferase (LDH + Red + Luc); assay: Three-enzyme assay system LDH + Red + Luc, luminescence intensity; assay type: biochemical, rabbit; Vibrio fischeri; Photobacterium leiognathi; conditions: active ingredient alone (AIa)
Protocol: (§5) The activities of the multi-enzyme assay systems were determined from the values of the luminescence intensity in the presence of the control or the analyte solutions.
The reaction mixture for analyzing the luminescence intensity of the LDH + Red + Luc three-enzyme assay system consisted of 5 μL of 0.5 mg/mL LDH; 300 μL of the 0.05 M potassium-phosphate buffer pH 7.1; 10 μL of the 15 mM lactate solution; 50 μL of the 0.0025% tetradecanal solution; 10 μL of the Red + Luc solution, preliminarily diluted in 5 mL of the buffer solution; 10 μL of the 0.5 mM FMN solution; 100 μL of the 0.5 mM NAD^+ solution; and 10–50 μL of the analyte solution or the solvent solution (control). The proportions of LDH, Red, and Luc in the reaction mixture were 1.4:1.2:1, and their concentrations were about 36, 31, and 26 nM, respectively.
(§6) The effect of the pesticide active ingredients and solvents on the multi-enzyme reactions was estimated from the residual luminescence intensity calculated according to the formula I = (It/Ic)∙100%, where Ic and It are the average values of luminescence intensity in the presence of the control or analyte solution, respectively.
as §4

[3] = biological target: NAD(P)H:FMN-oxidoreductase + luciferase (Red + Luc); assay: Coupled enzyme assay system Red + Luc, luminescence intensity; assay type: biochemical, Vibrio fischeri; Photobacterium leiognathi; conditions: active ingredient alone (AIa)
Protocol: as §5
To analyze the effect of pesticides on the luminescence intensity of the Red + Luc coupled enzyme assay system, we used the following reaction mixture: 290 μL of the 0.05 M potassium-phosphate buffer pH 6.8; 5 μL of the Red + Luc mixture, preliminarily diluted in 5 mL of the buffer solution; 50 μL of the 0.0025% tetradecanal solution; 50 μL of the 0.5 mM FMN solution; 100 μL of the 0.4 mM NADH solution; and 10–200 μL of the analyte solution or the solvent solution used as a control. Ratio of Red to Luc in the reaction mixture was 1.2:1; and their concentrations were about 15 and 13 nM, respectively.
as §6, §4

[4] = biological target: T2, butyrylcholinesterase (BChE) (Equus caballus, UniProt P81908); assay: Single-enzyme assay system, BChE activity (Ellman's method, 412 nm); assay type: biochemical, equine
T2 construct: purchased Sigma-Aldrich; host or cells: equine serum
Protocol: as §1
To analyze BChE activity Ellman’s method was used. The absorbance of the solutions was measured at the 412 nm. We used the following reaction mixture: 800–850 μL of the 0.05 M potassium-phosphate buffer pH 8.0, 70 mU of BChE, 60 μL of 0.2 mM 5,5′-dithiobis (2-nitrobenzoic acid), 60 μL of 0.2 mM S-BCh-I, and 50–100 μL of the analyte solution or the solvent solution used as control.
as §3, §4

[5] = biological target: T3, alcohol dehydrogenase (ADH) (Saccharomyces cerevisiae, UniProt P00330); assay: Single-enzyme assay system, ADH activity (absorbance 340 nm); assay type: biochemical, baker's yeast
T3 construct: purchased Sigma-Aldrich; host or cells: baker’s yeast
Protocol: as §1, §2
The activity of the ADH was estimated by using the following reaction mixture: 1500 μL of the potassium-phosphate buffer 0.05 M pH 7.85, 750 mU of ADH, 40 μL of the 2.4 mM NAD^+ solution, and 25 μL of 95% ethanol. Distilled water and acetonitrile were used as control solutions.
as §3, §4

[6] = biological target: alkaline phosphatase (ALP) (Bos taurus, UniProt P19111); assay: Single-enzyme assay system, ALP activity (absorbance 405 nm); assay type: biochemical, bovine; conditions: 13.5 mg/L of fenvalerate (AIa)
Protocol: as §1
The activity of the ALP was analyzed in the following reaction mixture: 990 μL of the glycine NaOH buffer pH 9.6 containing 0.5 mM MgCl2, 1.2 mU of the ALP solution, 8 μL of the 33 mM […] solution, and 30–50 μL of the analyte solution. The absorbance of the solutions was measured at 405 nm.
as §3, §4

[7] = biological target: alcohol dehydrogenase + NAD(P)H:FMN-oxidoreductase + luciferase (ADH + Red + Luc); assay: Three-enzyme assay system ADH + Red + Luc, luminescence intensity; assay type: biochemical, baker's yeast; Vibrio fischeri; Photobacterium leiognathi; conditions: active ingredient alone (AIa)
Protocol: as §5
An analysis of the activity of the ADH + Red + Luc three-enzyme assay system was performed using the reaction mixture containing 350 μL of the 0.05 M potassium-phosphate buffer pH 6.9; 5 μL of 0.5 mg/mL ADH; 5 μL of the Red + Luc solution, preliminarily diluted in 5 mL of the buffer solution; 50 μL of the 0.0025% tetradecanal solution; 100 μL of the 0.4 mM NAD^+ solution; 10 μL of the 0.5 mM FMN solution; 5 μL of 95% ethanol; and 10–100 μL of the solvent (control) or the analyte solution. The proportions of ADH, Red, and Luc in the reaction mixture were 10:1.2:1, and their concentrations were about 120, 14, and 12 nM, respectively.
as §6, §4

trypsin = biological target: T4, trypsin (Sus scrofa, UniProt P00761); assay: Single-enzyme assay system, trypsin activity (absorbance 253 nm); assay type: biochemical, porcine
T4 construct: purchased Sigma-Aldrich; host or cells: porcine pancreas
Protocol: as §1
Trypsin activity was analyzed in the reaction mixture containing 490 μL of the 0.1 M Clark and Lubs buffer pH 7.6, 11 mU of trypsin, 40 μL of 1 mM hydrochloric acid, and 460 μL of the 0.5 mM BAEE solution. The absorbances of the solutions were measured at 253 nm.
as §3, §4

[8] = maximum residual levels of the active ingredient, Russian Federation; cited from earlier work
[9] = test system: Photobacterium phosphoreum; assay: Bioluminescence of luminous bacterium P. phosphoreum; assay type: cell-based
Protocol: Bacterium P. phosphoreum 1889 was provided by the museum at the IBP SB RAS [68]. P. phosphoreum cells were grown for 24 h on solid medium for marine bacteria. The cells were suspended in the sodium-phosphate buffer pH 7.4.
The effects of active ingredients of pesticides on the luminous bacterium were determined by changes in the bacterial luminescence intensity in the presence of the analyte relative to the control value. The solvent was used as a control solution. The reaction mixture for analyzing the luminescence intensity of luminous bacterium in the presence of control solution contained 450 μL of bacterial suspension and 5 μL of ethanol or 50 μL of distilled water, used as solvents for active ingredients of pesticides. A cuvette with the reaction mixture was placed into a luminometer, and luminescence intensity (Ic) was measured after 1 min. Then, another aliquot of bacterial suspension and 5 or 50 μL of a pesticide active ingredient solution were placed into a luminometer cuvette, and luminescence intensity (It) was measured after 1 min. The residual luminescence intensity was determined according to the formula I = (It/Ic) ∙ 100%.
The parameter EC50 was used to estimate the inhibitory effect of the active ingredients of pesticides on the bioluminescence of P. phosphoreum. […]

[10] = biological target: NAD(P)H:FMN-oxidoreductase (Red); assay: Single-enzyme assay system, Red activity (absorbance 340 nm); assay type: biochemical, Vibrio fischeri; conditions: active ingredient alone (AIa)
Protocol: as §1, §2
The reaction mixture for the Red-catalyzed reaction consisted of 750 μL of the 0.05 M potassium-phosphate buffer pH 7.25, 6 mU of Red, 100 μL of the 0.4 mM NADH solution, 10 μL of the 0.5 mM FMN solution, and 5–100 μL of the analyte solution or the solvent (control).
as §3, §4

[11] = active ingredient alone (AIa), read-out: IC50, LDH (converted)
[12] = active ingredient alone (AIa), read-out: IC50, BChE (converted)
[13] = active ingredient alone (AIa), read-out: IC50, ADH (converted)

T2 sequence (P81908 whole entry): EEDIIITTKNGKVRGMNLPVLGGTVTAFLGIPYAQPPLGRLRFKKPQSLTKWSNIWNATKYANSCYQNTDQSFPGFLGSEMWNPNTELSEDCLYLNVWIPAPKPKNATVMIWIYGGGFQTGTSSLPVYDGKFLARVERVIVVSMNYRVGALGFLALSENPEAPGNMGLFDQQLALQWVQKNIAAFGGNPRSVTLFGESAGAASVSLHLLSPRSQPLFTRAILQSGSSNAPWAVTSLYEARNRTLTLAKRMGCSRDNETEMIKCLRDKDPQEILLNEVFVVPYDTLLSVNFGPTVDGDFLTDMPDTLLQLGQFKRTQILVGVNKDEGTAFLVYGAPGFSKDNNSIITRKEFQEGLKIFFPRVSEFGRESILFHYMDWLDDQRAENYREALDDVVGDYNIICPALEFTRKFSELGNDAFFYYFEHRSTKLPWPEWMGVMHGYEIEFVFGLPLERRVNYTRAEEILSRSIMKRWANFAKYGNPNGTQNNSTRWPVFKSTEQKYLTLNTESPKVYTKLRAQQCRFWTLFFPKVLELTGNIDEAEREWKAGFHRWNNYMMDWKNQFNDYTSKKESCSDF
T4 sequence (P00761 9-231): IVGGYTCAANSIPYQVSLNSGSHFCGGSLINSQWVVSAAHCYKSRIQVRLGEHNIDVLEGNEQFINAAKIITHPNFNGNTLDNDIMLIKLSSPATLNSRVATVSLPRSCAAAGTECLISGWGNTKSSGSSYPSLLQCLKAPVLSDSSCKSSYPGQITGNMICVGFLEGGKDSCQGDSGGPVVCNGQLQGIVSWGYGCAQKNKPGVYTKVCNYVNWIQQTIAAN
T3 sequence (P00330 whole entry): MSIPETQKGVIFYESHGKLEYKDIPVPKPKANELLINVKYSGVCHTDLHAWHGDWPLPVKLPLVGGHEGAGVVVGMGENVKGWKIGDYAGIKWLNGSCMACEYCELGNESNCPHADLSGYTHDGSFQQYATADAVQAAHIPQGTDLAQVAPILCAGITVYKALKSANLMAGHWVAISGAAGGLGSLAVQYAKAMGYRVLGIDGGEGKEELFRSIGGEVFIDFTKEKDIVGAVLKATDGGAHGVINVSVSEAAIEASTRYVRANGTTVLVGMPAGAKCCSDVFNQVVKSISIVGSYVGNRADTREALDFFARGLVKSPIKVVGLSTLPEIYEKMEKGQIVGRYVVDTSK
Sequence of alkaline phosphatase (ALP) (P19111 20-506): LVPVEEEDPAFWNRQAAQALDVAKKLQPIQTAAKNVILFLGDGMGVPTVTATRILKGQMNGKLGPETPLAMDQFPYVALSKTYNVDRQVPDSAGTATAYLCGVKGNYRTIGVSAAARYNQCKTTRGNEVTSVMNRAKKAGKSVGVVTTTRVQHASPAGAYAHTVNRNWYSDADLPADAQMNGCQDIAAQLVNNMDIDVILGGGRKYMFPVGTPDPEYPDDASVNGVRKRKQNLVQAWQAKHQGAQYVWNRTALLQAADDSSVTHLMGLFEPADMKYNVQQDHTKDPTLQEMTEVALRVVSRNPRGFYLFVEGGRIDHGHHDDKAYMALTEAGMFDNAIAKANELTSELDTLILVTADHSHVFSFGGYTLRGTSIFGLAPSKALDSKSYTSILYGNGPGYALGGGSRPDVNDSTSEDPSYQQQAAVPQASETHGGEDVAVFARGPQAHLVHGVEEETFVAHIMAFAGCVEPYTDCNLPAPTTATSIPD

CC(C)C(C(=O)OC(C#N)c1cccc(Oc2ccccc2)c1)c1ccc(Cl)cc1 (stereo not shown) [Fenvalerate, fenvalerate]
IC50 [1, 11]: 7.14 µM | IC50, LDH + Red + Luc [2]: 31.7 µg/mL | IC50, Red + Luc [3]: 4.8 µg/mL | IC50 [4, 12]: 286 µM | IC50, ADH ([5]; active ingredient alone (AIa)): No inhibitory effects | increase in ALP activity [6]: 26% | IC50, ADH + Red + Luc [7]: 1.6 µg/mL | increase in trypsin activity (trypsin; 10 mg/L of fenvalerate (AIa)): 28%

CCOP(=S)(OCC)Oc1cc(C)nc(C(C)C)n1 [Diazinon, diazinon]
IC50, LDH ([1]; active ingredient alone (AIa)): No inhibitory effects | IC50, LDH + Red + Luc [2]: 3351 µg/mL | IC50, Red + Luc [3]: 2234 µg/mL | IC50 [5]: 47.6 µM | IC50, ADH + Red + Luc [7]: 11 µg/mL | MRL RUS [8]: 0.1 to 0.5 mg/kg

O=[N+]([O-])NC1=NCCN1Cc1ccc(Cl)nc1 [Imidacloprid, imidacloprid]
IC50, LDH + Red + Luc [2]: – (No inhibitory effect of the AIa and AIf was detected in the tested concentration range.) | EC50, P. phosphoreum bioluminescence ([9]; active ingredient alone (AIa), luminescence after 1 min): did not produce any detectable effect | EC20 (20% quenching of bacterial bioluminescence) ([9]; imidacloprid as AIa and as AIf): 50 µg/mL | IC50, Red + Luc [3]: – (No inhibitory effect of the AIa and AIf was detected in the tested concentration range.) | IC50, ADH + Red + Luc [7]: – (No inhibitory effect of the AIa and AIf was detected in the tested concentration range.) | MRL RUS [8]: 0.1 to 1.0 mg/kg

CC1(C)C(C=C(Cl)Cl)C1C(=O)OC(C#N)c1cccc(Oc2ccccc2)c1 (stereo not shown) [Cypermethrin, cypermethrin]
IC50 [1, 11]: 60.1 µM | IC50, LDH + Red + Luc [2]: 6.5 µg/mL | IC50, Red + Luc [3]: 1.8 µg/mL | IC50 [5, 13]: 0.48 µM | IC50, ADH + Red + Luc [7]: 0.2 µg/mL | IC50, Trypsin (trypsin; active ingredient alone (AIa)): No inhibitory effects

CC1(C)[C@H](C(=O)O[C@H](C#N)c2cccc(Oc3ccccc3)c2)[C@@H]1C=C(Br)Br [Deltamethrin, deltamethrin]
IC50 [1, 11]: 59.4 µM | IC50, LDH + Red + Luc [2]: 7.7 µg/mL | IC50, Red + Luc [3]: 3.7 µg/mL | IC50 [4, 12]: 198 µM | IC50 [5, 13]: 20.6 µM | IC50, ADH + Red + Luc [7]: 1.0 µg/mL | MRL RUS [8]: 0.01 to 0.3 mg/kg

O=C(O)CNCP(=O)(O)O [Glyphosate, glyphosate]
IC50, LDH ([1]; active ingredient alone (AIa)): no 50% inhibition | IC50, Red [10]: no 50% inhibition | IC50, LDH + Red + Luc [2]: 935 µg/mL | IC50, Red + Luc [3]: 288 µg/mL | concentration giving 50% inhibition of Red + Luc activity [3]: 0.3 g/L | IC50 [4, 12]: 207 µM | IC50 [5, 13]: 30400 µM | IC50, ADH + Red + Luc [7]: 3200 µg/mL | IC50 (trypsin; active ingredient alone (AIa), read-out: IC50, Trypsin (converted)): 5690 µM | IC50 (trypsin; glyphosate as AIa, read-out: IC50, trypsin (Figure 2 legend) (converted)): 5680 µM

CCOC(=O)CC(SP(=S)(OC)OC)C(=O)OCC (stereo not shown) [Malathion, malathion]
IC50 [1]: 1060 µM | IC50 [4]: 1820 µM | MRL RUS [8]: 0.05 to 1.0 mg/kg
